Assay results as given in patent US20070231874A1, “Crystal of glucokinase protein, and method for drug design using the crystal” (priority 2002, published 2007).

Target: T1, glucokinase (Homo sapiens, UniProt P35557)
T1 sequence (P35557 1-466 isoform P35557-2): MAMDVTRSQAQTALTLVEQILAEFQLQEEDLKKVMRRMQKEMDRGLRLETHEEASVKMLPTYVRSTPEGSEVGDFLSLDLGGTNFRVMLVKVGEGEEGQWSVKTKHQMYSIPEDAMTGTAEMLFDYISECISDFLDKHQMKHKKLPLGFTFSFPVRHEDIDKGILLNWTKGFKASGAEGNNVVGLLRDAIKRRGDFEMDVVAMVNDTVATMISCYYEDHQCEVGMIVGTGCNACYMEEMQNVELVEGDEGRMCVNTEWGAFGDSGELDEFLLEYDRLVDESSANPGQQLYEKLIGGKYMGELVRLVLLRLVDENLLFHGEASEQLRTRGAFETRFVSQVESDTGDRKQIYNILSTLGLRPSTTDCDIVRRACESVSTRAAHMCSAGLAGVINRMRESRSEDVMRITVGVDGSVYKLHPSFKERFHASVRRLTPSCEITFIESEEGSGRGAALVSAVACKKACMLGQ
Test: glucokinase activity assay of compounds found by pharmacophore screening (activation relative to control)
Format: biochemical
Settings: glucose 2.5 M, ligand 10 μM; activity of glucokinase is 100% in the case of control
Description: Library compounds were screened using, as research conditions, pharmacophore of a hydrogen bond acceptor and hydrogen bond donor generated respectively from NH and CO of a main chain of Arg63, hydrophobic pharmacophore formed in a space corresponding to a phenyl group of an aniline part of a ligand forming a complex, and the protein surface made based on the structure of a protein, by using a software UNITY (manufactured by Tripos), and the following compound 4 and compound 5 were obtained and assayed, to confirm activities of 780% and 560%. An activity of 780% means that when the activity of glucokinase is 100% in the case of control, the activity is enhanced up to 780% by these compound (using glucose 2.5 M, and ligand 10 μM). [drawing 15]

activity of glucokinase (control = 100%) [%]	SMILES
780	Nc1ccc(Oc2ccccc2)cc1C(=O)Nc1nccs1 [compound 4]
560	CCOC(=O)c1csc(NC(=O)c2cc(Sc3ccncc3)ccc2N)n1 [compound 5]
